Data as given in patent US11366116B1, “Real time autonomous surveillance of pathogens” (priority 2017, dated 2022).

Tested on: Culex tarsalis mosquitoes
Assay: Observation of mosquitoes feeding upon scented, spun (cotton candy) baits
Format: in vivo
Conditions: for Number of mosquitos observed feeding each scent: scented spun cotton candy bait
Description: One strategy for a solid bait that we tested was a “cotton candy” or spun sugar bait (FIG. 11). The cotton candy could be pressed into the feeding well, over and on top of a dried enzyme pellet and a ball bearing for magnetic mixing. We anticipated this would allow a large surface area for mosquitoes to feed, as well as dissolve instantly upon adding a drop of rehydration buffer. Plain cotton candy made from pure sucrose turned out to be unstable upon storage for more than a few days, and we subsequently devised a way to modify the cotton candy by melting a polymer (PEG) with the sugar prior to spinning, to stabilize it against shriveling in ambient humidity. […] Based on this experiment (Table 1), we determined that both honey and plumeria could be used as attractants for sugar-feeding Culex tarsalis mosquitoes.

O=CCc1ccccc1 [Phenylacetaldehyde]
Number of mosquitos observed feeding each scent (Day 0): 0 | Number of mosquitos observed feeding each scent (Day 1): 5 | Number of mosquitos observed feeding each scent (Day 2): 1 | Number of mosquitos observed feeding each scent (Day 3): 4 | Number of mosquitos observed feeding each scent (Day 4): 3 | Number of mosquitos observed feeding each scent, Sum (Sum of Day 0 to Day 4): 13
